{"source": "patent US8575097B2", "about": "“Exendin variant and conjugate thereof” (Pegbio Co., Ltd., priority 2009, dated 2013)", "experiment": "Effect on body weight of guinea pigs (Example 23)", "assay_type": "in vivo, guinea pig", "details": "4 days after two successive dosing, 100 μg/kg s.c. (albumin 80 mg/kg), compared with saline group", "excerpt": "44 male healthy guinea pigs were provided, and the body weight of each guinea pig was about 300 g."}
{"substance": "chicken ovalbumin [chicken ovalbumin, albumin group in the guinea pig allergy test]", "values": [{"measurement": "decrease of body weight", "result": "did not decrease"}]}
